Measured values taken from patent US20250255984A1, “MNO NANOMATERIAL BASED INHIBITORS OF INFLAMMATION AND CANCER METASTASIS” (priority 2022, published 2025).
“Also recorded” adds a separate entry of the source.

What was measured:
[1] = system: 4T1 tumor; assay: 4T1 metastasis tumor model, treatment with or without photothermal therapy; type: in vivo, Balb/c mice
[2] = system: TNF-α; assay: TNF-α production by activated RAW264.7 macrophages; type: cell-based, murine; settings: 24 h, 50 and 100 μg/ml
Excerpt: (§1) TLRs recognize a variety of PAMPs and DAMPs that induce the secretion of several proinflammatory cytokines. Inhibiting TLR activation and blocking DAMP-TLR interactions is a promising strategy for alleviating PTT-induced inflammation and reducing tumor regeneration and metastasis.

[3] = system: calf thymus DNA; assay: PicoGreen DNA-binding assay; settings: TE buffer, different material:DNA mass ratios, unbound PicoGreen-labeled DNA
Protocol: The fluorescence intensity of the unbound PicoGreen®-DNA complex at 520 nm was measured with a multiwell plate reader via excitation at 490 nm.
Inflammatory circulating cfDNA released by PTT-damaged host cells might cause a severe inflammatory response, which may be mitigated by the scavenging of cfDNA. Therefore, to interrogate the cfDNA scavenging ability of the various nanoparticles, the inventors investigated the calf thymus DNA binding affinity of the nanoparticles in Tris-EDTA (TE) buffer with and without 10% FBS by measuring unbound PicoGreen®-labeled DNA (FIGS. 5D and 5E).

[4] = system: HEK-Blue hTLR3 cells; assay: Agonist-induced TLR activation, HEK-Blue hTLR3 SEAP reporter cells; type: cell-based, human; settings: dose-dependent, presence or absence of FBS, 24 hours
Protocol: (§2) HEK-Blue hTLR3, hTLR8, and hTLR9 cells were obtained by co-transfecting the hTLR gene and an optimized secreted embryonic alkaline phosphatase (SEAP) reporter gene into HEK293 cells. HEK-Blue hTLR cells were cultured and maintained in DMEM with 10% FBS and 1% penicillin-streptomycin. […] After 24 hours, the supernatants were collected and mixed with Quanti-Blue™. TLR activation associated with SEAP activity was determined with a multiwell plate reader by measuring the OD at 620 nm. The cell densities (in a 96 well plate) used were 8×10^4 cells/well for HEK-Blue hTLR9 cells, 5×10^4 cells/well for HEK-Blue hTLR3 cells, and 4×10^4 cells/well for HEK-Blue hTLR8 cells.
(§3) We further studied nanoparticle-mediated inhibition of proinflammatory molecules-induced TLR activation by using HEK-Blue human TLR (hTLR) cells.
(§4) HEK-Blue hTLR3, hTLR8 and hTLR9 were obtained by co-transfecting the hTLR gene and an optimized secreted embryonic alkaline phosphatase (SEAP) reporter gene into HEK293 cells. HEK-Blue hTLR cells were cultured and maintained in DMEM with 10% FBS and 1% penicillin-streptomycin. […] TLR activation associated with SEAP activity was determined with a multiwell plate reader by measuring the OD at 620 nm.

[5] = system: HEK-Blue hTLR4 cells; assay: Agonist-induced TLR activation, HEK-Blue hTLR4 reporter cells; type: cell-based, human; settings: dose-dependent, presence or absence of FBS, 24 hours
Excerpt: as §3

[6] = system: HEK-Blue hTLR9 cells; assay: Agonist-induced TLR activation, HEK-Blue hTLR9 SEAP reporter cells; type: cell-based, human; settings: dose-dependent, presence or absence of FBS, 24 hours
Protocol: as §2, §3, §4

[7] = system: COX-2 mRNA; assay: COX-2 mRNA expression (RT-qPCR) in activated RAW264.7 cells; type: cell-based, murine; settings: 24 h
Excerpt: as §1

[8] = without laser, intravenous three times per week

Row | SMILES | survival rates of mice ([1]; after PTT) | tumor recurrence and metastasis ([1]; after laser (PTT)) | body weight of the mice ([1]; after laser (PTT), intravenous three times per week) | cytokine levels (IL-6, TNF-α and IL-1 beta) in mouse serum, ELISA ([1]; after laser (PTT), versus PBS and laser groups) | body weight of the mice [1, 8] | size of the tumors / tumor suppression [1, 8] | TNF-α production ([2]; CpG-activated RAW264.7 cells) | TNF-α production ([2]; LPS-activated RAW264.7 cells) | DNA binding affinity [3] | poly (I:C)-induced activation of HEK-Blue hTLR3 cells [4] | LPS-induced activation of HEK-Blue hTLR4 cells [5] | CpG-induced activation of HEK-Blue hTLR9 cells [6] | COX-2 mRNA expression ([7]; CpG-activated RAW264.7 cells) | COX-2 mRNA expression ([7]; LPS-activated RAW264.7 cells)
1 | COc1cc(/C=C/C(=O)CC(=O)/C=C/c2ccc(O)c(OC)c2)ccc1O [curcumin] | greatly improved | inhibited tumor recurrence and metastasis | increased body weight | clearly lower | did not show obvious effects | did not show obvious effects; also recorded: small effect | slightly reduced | only slightly reduced | negligible DNA binding ability | negligible inhibitory effect | negligible inhibitory effect | negligible inhibitory effect | alleviated the generation of COX-2 mRNA in CpG-induced RAW264.7 cells to some extent | no obvious inhibitory effect
2 | O=C(OC[C@H]1O[C@@H](OC(=O)c2cc(O)c(O)c(OC(=O)c3cc(O)c(O)c(O)c3)c2)[C@H](OC(=O)c2cc(O)c(O)c(OC(=O)c3cc(O)c(O)c(O)c3)c2)[C@@H](OC(=O)c2cc(O)c(O)c(OC(=O)c3cc(O)c(O)c(O)c3)c2)[C@@H]1OC(=O)c1cc(O)c(O)c(OC(=O)c2cc(O)c(O)c(O)c2)c1)c1cc(O)c(O)c(OC(=O)c2cc(O)c(O)c(O)c2)c1 [tannic acid] |  |  |  |  |  |  |  |  | can bind to DNA |  |  |  |  | 
